Source: patent US8592175B2, “Nitroreductase enzymatic substrates” (bioMérieux, S.A., priority 2009, dated 2013)

What was measured:
Assay in all cases: Color, fluorescence and growth of colonies on Columbia medium with nitroreductase substrate
Format in all cases: cell-based
[1] = system: Enterococcus faecalis NCTC 775; parameters: key to Growth: NG: no growth; 0.5: low growth; 1: moderate growth; 2: good growth; key to Fluo.: fluorescence of the colonies / Col.: color of the colonies: —: no color/fluorescence; settings: 40 mg substrate in 400 ml Columbia medium, 24 hours at 37° C.; for Fluo.: fluorescence of the colonies: UV lamp at 365 nm
Protocol: (§1) 40 mg of each of the substrates were dissolved in 4 ml of dimethylsulfoxide and added to 400 ml of previously autoclaved Columbia medium. The 5 media were distributed in Petri dishes 90 mm in diameter at the rate of 20 ml per dish. Seventeen strains of microorganisms obtained from collections and belonging to various species of bacteria and yeasts are inoculated as spots of about 10 000 colony forming units. The media are incubated for 24 hours at 37° C. and then the colonies formed are examined visually and under a UV lamp at 365 nm.

[2] = system: Providencia rettgeri NCTC 7 475; parameters: key to Growth: NG: no growth; 0.5: low growth; 1: moderate growth; 2: good growth; key to Fluo.: fluorescence of the colonies / Col.: color of the colonies: —: no color/fluorescence; settings: 40 mg substrate in 400 ml Columbia medium, 24 hours at 37° C.; for Col.: color of the colonies: examined visually; for Fluo.: fluorescence of the colonies: UV lamp at 365 nm
Protocol: as §1

[3] = system: Staphylococcus aureus NCTC 6 571; parameters: key to Growth: NG: no growth; 0.5: low growth; 1: moderate growth; 2: good growth; key to Fluo.: fluorescence of the colonies / Col.: color of the colonies: —: no color/fluorescence; settings: 40 mg substrate in 400 ml Columbia medium, 24 hours at 37° C.; for Col.: color of the colonies: examined visually; for Fluo.: fluorescence of the colonies: UV lamp at 365 nm
Protocol: as §1

[4] = system: Enterococcus faecium NCTC 7 171; parameters: key to Growth: NG: no growth; 0.5: low growth; 1: moderate growth; 2: good growth; key to Fluo.: fluorescence of the colonies / Col.: color of the colonies: —: no color/fluorescence; settings: 40 mg substrate in 400 ml Columbia medium, 24 hours at 37° C.; for Fluo.: fluorescence of the colonies: UV lamp at 365 nm; for Col.: color of the colonies: examined visually
Protocol: as §1

[5] = system: Candida glabrata NCPF 3 943; parameters: key to Growth: NG: no growth; 0.5: low growth; 1: moderate growth; 2: good growth; key to Fluo.: fluorescence of the colonies / Col.: color of the colonies: —: no color/fluorescence; settings: 40 mg substrate in 400 ml Columbia medium, 24 hours at 37° C.; for Col.: color of the colonies: examined visually; for Fluo.: fluorescence of the colonies: UV lamp at 365 nm
Protocol: as §1

[6] = system: Salmonella typhimurium NCTC 74; parameters: key to Growth: NG: no growth; 0.5: low growth; 1: moderate growth; 2: good growth; key to Fluo.: fluorescence of the colonies / Col.: color of the colonies: —: no color/fluorescence; settings: 40 mg substrate in 400 ml Columbia medium, 24 hours at 37° C.; for Fluo.: fluorescence of the colonies: UV lamp at 365 nm; for Col.: color of the colonies: examined visually
Protocol: as §1

[7] = system: Staphylococcus epidermidis NCTC 11 047; parameters: key to Growth: NG: no growth; 0.5: low growth; 1: moderate growth; 2: good growth; key to Fluo.: fluorescence of the colonies / Col.: color of the colonies: —: no color/fluorescence; settings: 40 mg substrate in 400 ml Columbia medium, 24 hours at 37° C.; for Col.: color of the colonies: examined visually; for Fluo.: fluorescence of the colonies: UV lamp at 365 nm
Protocol: as §1

[8] = system: Streptococcus pyogenes NCTC 8 306; parameters: key to Growth: NG: no growth; 0.5: low growth; 1: moderate growth; 2: good growth; key to Fluo.: fluorescence of the colonies / Col.: color of the colonies: —: no color/fluorescence; settings: 40 mg substrate in 400 ml Columbia medium, 24 hours at 37° C.; for Col.: color of the colonies: examined visually; for Fluo.: fluorescence of the colonies: UV lamp at 365 nm
Protocol: as §1

[9] = system: Pseudomonas aeruginosa NCTC 10 662; parameters: key to Growth: NG: no growth; 0.5: low growth; 1: moderate growth; 2: good growth; key to Fluo.: fluorescence of the colonies / Col.: color of the colonies: —: no color/fluorescence; settings: 40 mg substrate in 400 ml Columbia medium, 24 hours at 37° C.; for Col.: color of the colonies: examined visually; for Fluo.: fluorescence of the colonies: UV lamp at 365 nm
Protocol: as §1

[10] = system: Listeria monocytogenes NCTC 11 994; parameters: key to Growth: NG: no growth; 0.5: low growth; 1: moderate growth; 2: good growth; key to Fluo.: fluorescence of the colonies / Col.: color of the colonies: —: no color/fluorescence; settings: 40 mg substrate in 400 ml Columbia medium, 24 hours at 37° C.; for Fluo.: fluorescence of the colonies: UV lamp at 365 nm; for Col.: color of the colonies: examined visually
Protocol: as §1

[11] = system: Candida albicans ATCC 90 028; parameters: key to Growth: NG: no growth; 0.5: low growth; 1: moderate growth; 2: good growth; key to Fluo.: fluorescence of the colonies / Col.: color of the colonies: —: no color/fluorescence; settings: 40 mg substrate in 400 ml Columbia medium, 24 hours at 37° C.; for Col.: color of the colonies: examined visually; for Fluo.: fluorescence of the colonies: UV lamp at 365 nm
Protocol: as §1

[12] = system: Staphylococcus aureus NCTC 11 939; parameters: key to Growth: NG: no growth; 0.5: low growth; 1: moderate growth; 2: good growth; key to Fluo.: fluorescence of the colonies / Col.: color of the colonies: —: no color/fluorescence; settings: 40 mg substrate in 400 ml Columbia medium, 24 hours at 37° C.; for Col.: color of the colonies: examined visually; for Fluo.: fluorescence of the colonies: UV lamp at 365 nm
Protocol: as §1

[13] = system: Yersinia enterocolitica NCTC 11 176; parameters: key to Growth: NG: no growth; 0.5: low growth; 1: moderate growth; 2: good growth; key to Fluo.: fluorescence of the colonies / Col.: color of the colonies: —: no color/fluorescence; settings: 40 mg substrate in 400 ml Columbia medium, 24 hours at 37° C.; for Col.: color of the colonies: examined visually; for Fluo.: fluorescence of the colonies: UV lamp at 365 nm
Protocol: as §1

[14] = system: Bacillus subtilis NCTC 9 372; parameters: key to Growth: NG: no growth; 0.5: low growth; 1: moderate growth; 2: good growth; key to Fluo.: fluorescence of the colonies / Col.: color of the colonies: —: no color/fluorescence; settings: 40 mg substrate in 400 ml Columbia medium, 24 hours at 37° C.; for Col.: color of the colonies: examined visually; for Fluo.: fluorescence of the colonies: UV lamp at 365 nm
Protocol: as §1

[15] = system: Enterobacter cloacae NCTC 11 936; parameters: key to Growth: NG: no growth; 0.5: low growth; 1: moderate growth; 2: good growth; key to Col.: color of the colonies: —: no color/fluorescence; settings: 40 mg substrate in 400 ml Columbia medium, 24 hours at 37° C.; for Col.: color of the colonies: examined visually
Protocol: as §1

[16] = system: Escherichia coli NCTC 10 418; parameters: key to Growth: NG: no growth; 0.5: low growth; 1: moderate growth; 2: good growth; key to Col.: color of the colonies: —: no color/fluorescence; settings: 40 mg substrate in 400 ml Columbia medium, 24 hours at 37° C.
Protocol: as §1

[17] = system: Serratia marcescens NCTC 10 211; parameters: key to Growth: NG: no growth; 0.5: low growth; 1: moderate growth; 2: good growth; key to Col.: color of the colonies: —: no color/fluorescence; settings: 40 mg substrate in 400 ml Columbia medium, 24 hours at 37° C.
Protocol: as §1

2-(4′-nitrophenyl)butadienyl-N-methylquinolinium iodide [2NPBMQ^+I]
Growth [1]: 1
Growth [2]: 2
Col.: color of the colonies [2]: Orange
Growth [3]: NG
Col.: color of the colonies [3]: —
Growth [4]: 1
Growth [5]: NG
Col.: color of the colonies [5]: —
Growth [6]: 1
Growth [7]: 1
Col.: color of the colonies [7]: —
Growth [8]: 0.5
Col.: color of the colonies [8]: —
Growth [9]: 2
Col.: color of the colonies [9]: Orange
Growth [10]: 1
Growth [11]: NG
Col.: color of the colonies [11]: —
Growth [12]: NG
Col.: color of the colonies [12]: —
Growth [13]: 1
Growth [14]: 0.5
Col.: color of the colonies [14]: —
Growth [15]: 2
Col.: color of the colonies [15]: Orange
Growth [16]: 2
Growth [17]: 2

C[n+]1c(C=Cc2ccc([N+](=O)[O-])cc2)ccc2ccccc21.[I-] [2NSMQ^+I, 2-(4′-nitrostyryl)-N-methylquinolinium iodide]
Growth [1]: 1
Growth [2]: 2
Col.: color of the colonies [2]: Rust
Growth [3]: NG
Col.: color of the colonies [3]: —
Growth [4]: 1
Growth [5]: NG
Col.: color of the colonies [5]: —
Growth [6]: 2
Growth [7]: 0.5
Col.: color of the colonies [7]: —
Growth [8]: 0.5
Growth [9]: 2
Growth [10]: 1
Growth [11]: 0.5
Col.: color of the colonies [11]: —
Growth [12]: NG
Col.: color of the colonies [12]: —
Growth [13]: 2
Col.: color of the colonies [13]: Rust
Growth [14]: 1
Growth [15]: 2
Growth [16]: 2
Growth [17]: 2

O=[N+]([O-])c1ccc(C=Cc2ccc3ccccc3n2)cc1 [2NSQ, 2-(4′-nitrostyryl)quinoline]
Growth [1]: 1
Fluo.: fluorescence of the colonies [1]: —
Col.: color of the colonies ([1]; examined visually): —
Growth [2]: 2
Fluo.: fluorescence of the colonies [2]: —
Col.: color of the colonies [2]: —
Growth [3]: 1
Fluo.: fluorescence of the colonies [3]: —
Col.: color of the colonies [3]: —
Growth [4]: 1
Fluo.: fluorescence of the colonies [4]: —
Col.: color of the colonies [4]: —
Growth [5]: 1
Fluo.: fluorescence of the colonies [5]: —
Col.: color of the colonies [5]: —
Growth [6]: 2
Fluo.: fluorescence of the colonies [6]: —
Col.: color of the colonies [6]: —
Growth [7]: 1
Fluo.: fluorescence of the colonies [7]: —
Col.: color of the colonies [7]: —
Growth [8]: 1
Fluo.: fluorescence of the colonies [8]: —
Col.: color of the colonies [8]: —
Growth [9]: 2
Fluo.: fluorescence of the colonies [9]: —
Col.: color of the colonies [9]: —
Growth [10]: 1
Fluo.: fluorescence of the colonies [10]: —
Col.: color of the colonies [10]: —
Growth [11]: 0.5
Fluo.: fluorescence of the colonies [11]: —
Col.: color of the colonies [11]: —
Growth [12]: 1
Fluo.: fluorescence of the colonies [12]: —
Col.: color of the colonies [12]: —
Growth [13]: 2
Fluo.: fluorescence of the colonies [13]: —
Col.: color of the colonies [13]: —
Growth [14]: 1
Fluo.: fluorescence of the colonies [14]: —
Col.: color of the colonies [14]: —
Growth [15]: 2
Col.: color of the colonies [15]: —
Growth [16]: 2
Col.: color of the colonies ([16]; examined visually): —
Growth [17]: 2
Col.: color of the colonies ([17]; examined visually): —

COc1cc([N+](=O)[O-])ccc1C=Cc1cc[n+](C)c2ccccc12.[I-] [4NMSMQ^+I, 4-(4′-nitro-2′-methoxystyryl)-N-methylquinolinium iodide]
Growth [1]: 2
Fluo.: fluorescence of the colonies [1]: —
Growth [2]: 0.5
Fluo.: fluorescence of the colonies [2]: —
Col.: color of the colonies [2]: —
Growth [3]: 2
Fluo.: fluorescence of the colonies [3]: —
Growth [4]: 0.5
Fluo.: fluorescence of the colonies [4]: —
Col.: color of the colonies [4]: —
Growth [5]: NG
Fluo.: fluorescence of the colonies [5]: —
Col.: color of the colonies [5]: —
Growth [6]: 1
Fluo.: fluorescence of the colonies [6]: —
Col.: color of the colonies [6]: —
Growth [7]: 2
Fluo.: fluorescence of the colonies [7]: —
Growth [8]: 1
Fluo.: fluorescence of the colonies [8]: —
Col.: color of the colonies [8]: —
Growth [9]: 1
Fluo.: fluorescence of the colonies [9]: —
Col.: color of the colonies [9]: —
Growth [10]: 2
Fluo.: fluorescence of the colonies [10]: —
Col.: color of the colonies [10]: —
Growth [11]: 0.5
Fluo.: fluorescence of the colonies [11]: —
Col.: color of the colonies [11]: —
Growth [12]: 2
Fluo.: fluorescence of the colonies [12]: —
Growth [13]: 2
Fluo.: fluorescence of the colonies [13]: —
Col.: color of the colonies [13]: —
Growth [14]: 2
Fluo.: fluorescence of the colonies [14]: —
Growth [15]: 2
Growth [16]: 2
Growth [17]: 2
